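Here, GI50 denotes the concentration required for 50% inhibition of growth. TGI marks complete inhibition of growth.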
Assays:
Test in all cases: inhibition of tumour cell growth, NCI panel, 384-well format; in the data active = GI50 below about 0.43 µM; inactive = the rest
786-0 renal = system: 786-0 renal
A498 renal = system: A498 renal
A549 NSCLC = system: A549 NSCLC
ACHN renal = system: ACHN renal
BT-549 breast = system: BT-549 breast
CAKI-1 renal = system: CAKI-1 renal
CCRF-CEM leukemia = system: CCRF-CEM leukemia
COLO 205 colon = system: COLO 205 colon
DU-145 prostate = system: DU-145 prostate
EKVX NSCLC = system: EKVX NSCLC
HCC-2998 colon = system: HCC-2998 colon
HCT-15 colon = system: HCT-15 colon
HL-60(TB) leukemia = system: HL-60(TB) leukemia
HOP-62 NSCLC = system: HOP-62 NSCLC
HOP-92 NSCLC = system: HOP-92 NSCLC
HS 578T breast = system: HS 578T breast
HT29 colon = system: HT29 colon
IGROV1 ovarian = system: IGROV1 ovarian
KM12 colon = system: KM12 colon
M14 melanoma = system: M14 melanoma
MALME-3M melanoma = system: MALME-3M melanoma
MCF7 breast = system: MCF7 breast
MDA-MB-231 breast = system: MDA-MB-231 breast
MDA-MB-435 melanoma = system: MDA-MB-435 melanoma
MDA-MB-468 breast = system: MDA-MB-468 breast
MOLT-4 leukemia = system: MOLT-4 leukemia
NCI-H226 lung = system: NCI-H226 lung
NCI-H23 lung = system: NCI-H23 lung
NCI-H322M lung = system: NCI-H322M lung
NCI-H460 NSCLC = system: NCI-H460 NSCLC
NCI-H522 lung = system: NCI-H522 lung
NCI/ADR-RES ovarian = system: NCI/ADR-RES ovarian
OVCAR-3 ovarian = system: OVCAR-3 ovarian
OVCAR-4 ovarian = system: OVCAR-4 ovarian
OVCAR-5 ovarian = system: OVCAR-5 ovarian
OVCAR-8 ovarian = system: OVCAR-8 ovarian
PC-3 prostate = system: PC-3 prostate
RPMI-8226 leukemia = system: RPMI-8226 leukemia
RXF 393 renal = system: RXF 393 renal
SF-268 CNS = system: SF-268 CNS
SF-295 CNS = system: SF-295 CNS
SF-539 CNS = system: SF-539 CNS
SK-MEL-2 melanoma = system: SK-MEL-2 melanoma
SK-MEL-28 melanoma = system: SK-MEL-28 melanoma
SK-MEL-5 melanoma = system: SK-MEL-5 melanoma
SK-OV-3 ovarian = system: SK-OV-3 ovarian
SN12C renal = system: SN12C renal
SNB-19 CNS = system: SNB-19 CNS
SR leukemia = system: SR leukemia
SW-620 colon = system: SW-620 colon
T-47D breast = system: T-47D breast
TK-10 renal = system: TK-10 renal
U251 glioblastoma = system: U251 glioblastoma
UACC-257 melanoma = system: UACC-257 melanoma
UACC-62 melanoma = system: UACC-62 melanoma

C[C@]1(c2nc3c(C(N)=O)cccc3[nH]2)CCCN1
28.3 µM: TGI (SR leukemia)
inactive: GI50 (786-0 renal) > 100 µM | GI50 (A498 renal) > 100 µM | GI50 (A549 NSCLC) > 100 µM | GI50 (ACHN renal) > 100 µM | GI50 (BT-549 breast) > 100 µM | GI50 (CAKI-1 renal) > 100 µM | GI50 (CCRF-CEM leukemia) > 100 µM | GI50 (COLO 205 colon) > 100 µM | GI50 (DU-145 prostate) > 100 µM | GI50 (EKVX NSCLC) > 100 µM | GI50 (HCC-2998 colon) 26.6 µM | GI50 (HCT-15 colon) > 100 µM | GI50 (HL-60(TB) leukemia) > 100 µM | GI50 (HOP-62 NSCLC) 40.7 µM | GI50 (HOP-92 NSCLC) > 100 µM | GI50 (HS 578T breast) > 100 µM | GI50 (HT29 colon) > 100 µM | GI50 (IGROV1 ovarian) > 100 µM | GI50 (KM12 colon) > 100 µM | GI50 (M14 melanoma) > 100 µM | GI50 (MALME-3M melanoma) > 100 µM | GI50 (MCF7 breast) 72.9 µM | GI50 (MDA-MB-231 breast) > 100 µM | GI50 (MDA-MB-435 melanoma) > 100 µM | GI50 (MDA-MB-468 breast) 16.2 µM | GI50 (MOLT-4 leukemia) 29.6 µM | GI50 (NCI-H226 lung) 90.3 µM | GI50 (NCI-H23 lung) 78.7 µM | GI50 (NCI-H322M lung) > 100 µM | GI50 (NCI-H460 NSCLC) 28.7 µM | GI50 (NCI-H522 lung) > 100 µM | GI50 (NCI/ADR-RES ovarian) > 100 µM | GI50 (OVCAR-3 ovarian) > 100 µM | GI50 (OVCAR-4 ovarian) > 100 µM | GI50 (OVCAR-5 ovarian) 84.4 µM | GI50 (OVCAR-8 ovarian) > 100 µM | GI50 (PC-3 prostate) > 100 µM | GI50 (RPMI-8226 leukemia) > 100 µM | GI50 (RXF 393 renal) > 100 µM | GI50 (SF-268 CNS) > 100 µM | GI50 (SF-295 CNS) 38.9 µM | GI50 (SF-539 CNS) > 100 µM | GI50 (SK-MEL-2 melanoma) > 100 µM | GI50 (SK-MEL-28 melanoma) > 100 µM | GI50 (SK-MEL-5 melanoma) > 100 µM | GI50 (SK-OV-3 ovarian) > 100 µM | GI50 (SN12C renal) 85.2 µM | GI50 (SNB-19 CNS) > 100 µM | GI50 (SR leukemia) 14.5 µM | GI50 (SW-620 colon) > 100 µM | GI50 (T-47D breast) > 100 µM | GI50 (TK-10 renal) > 100 µM | GI50 (U251 glioblastoma) > 100 µM | GI50 (UACC-257 melanoma) > 100 µM | GI50 (UACC-62 melanoma) 95.6 µM
> 100 µM: TGI (786-0 renal) | TGI (A498 renal) | TGI (A549 NSCLC) | TGI (ACHN renal) | TGI (BT-549 breast) | TGI (CAKI-1 renal) | TGI (CCRF-CEM leukemia) | TGI (COLO 205 colon) | TGI (DU-145 prostate) | TGI (EKVX NSCLC) | TGI (HCC-2998 colon) | TGI (HCT-15 colon) | TGI (HL-60(TB) leukemia) | TGI (HOP-62 NSCLC) | TGI (HOP-92 NSCLC) | TGI (HS 578T breast) | TGI (HT29 colon) | TGI (IGROV1 ovarian) | TGI (KM12 colon) | TGI (M14 melanoma) | TGI (MALME-3M melanoma) | TGI (MCF7 breast) | TGI (MDA-MB-231 breast) | TGI (MDA-MB-435 melanoma) | TGI (MDA-MB-468 breast) | TGI (MOLT-4 leukemia) | TGI (NCI-H226 lung) | TGI (NCI-H23 lung) | TGI (NCI-H322M lung) | TGI (NCI-H460 NSCLC) | TGI (NCI-H522 lung) | TGI (NCI/ADR-RES ovarian) | TGI (OVCAR-3 ovarian) | TGI (OVCAR-4 ovarian) | TGI (OVCAR-5 ovarian) | TGI (OVCAR-8 ovarian) | TGI (PC-3 prostate) | TGI (RPMI-8226 leukemia) | TGI (RXF 393 renal) | TGI (SF-268 CNS) | TGI (SF-295 CNS) | TGI (SF-539 CNS) | TGI (SK-MEL-2 melanoma) | TGI (SK-MEL-28 melanoma) | TGI (SK-MEL-5 melanoma) | TGI (SK-OV-3 ovarian) | TGI (SN12C renal) | TGI (SNB-19 CNS) | TGI (SW-620 colon) | TGI (T-47D breast) | TGI (TK-10 renal) | TGI (U251 glioblastoma) | TGI (UACC-257 melanoma) | TGI (UACC-62 melanoma)

From PubChem BioAssay (NCI)
